From PMC11613329, “An Optimized Marinopyrrole A Derivative Targets 6-Phosphoglucosamine Synthetase to Inhibit Methicillin-Resistant Staphylococcus aureus” (ACS Central Science, 2024) come the findings set out here.

By Kd is commonly meant the constant that tells how readily two partners part at equilibrium.

Experiment [1] addresses T1, 6-Phosphoglucosamine synthetase (GlmS) (Staphylococcus aureus, UniProt Q5HE49).
T1 sequence (Q5HE49 2-601): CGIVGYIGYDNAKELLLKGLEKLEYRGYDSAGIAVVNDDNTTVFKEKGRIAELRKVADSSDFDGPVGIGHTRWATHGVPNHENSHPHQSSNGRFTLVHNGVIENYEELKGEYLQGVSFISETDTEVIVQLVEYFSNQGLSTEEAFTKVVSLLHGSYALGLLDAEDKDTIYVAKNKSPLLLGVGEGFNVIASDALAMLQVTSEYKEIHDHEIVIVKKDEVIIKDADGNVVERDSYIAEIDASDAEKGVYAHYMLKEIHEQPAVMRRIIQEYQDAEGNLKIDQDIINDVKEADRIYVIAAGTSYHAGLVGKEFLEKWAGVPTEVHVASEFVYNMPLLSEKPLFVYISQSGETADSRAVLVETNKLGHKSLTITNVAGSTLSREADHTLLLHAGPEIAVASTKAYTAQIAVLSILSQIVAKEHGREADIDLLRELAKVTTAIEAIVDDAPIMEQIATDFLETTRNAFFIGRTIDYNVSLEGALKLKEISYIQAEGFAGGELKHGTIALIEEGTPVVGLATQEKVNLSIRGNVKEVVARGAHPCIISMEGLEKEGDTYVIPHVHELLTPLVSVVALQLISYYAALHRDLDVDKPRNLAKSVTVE
The experiment is described as follows: in vitro GlmS enzymatic assay, positive control. The class given is biochemical.

For experiment [2], the target named is T1, 6-Phosphoglucosamine synthetase (GlmS). The experiment is described as follows: SPR with purified GlmS; also thermal stability shift and enzymatic inhibition (IC50 […]). Type of experiment: binding.

Turning to `COC(=O)/C=C/C(=O)NC[C@H](N)C(=O)O` [FMDP, N^3-(4-metoxyfumaroyl)-(S)-2,3-diaminopropanoic acid], in experiment [1], the “in vitro GlmS enzymatic assay, positive control” value is on record as “The reported FMDP was used as a positive control”.

Take `O=C(c1ccc(C(F)(F)F)cc1O)c1[nH]c(Cl)c(Cl)c1-n1c(C(=O)c2ccc(C(F)(F)F)cc2O)cc(Cl)c1Cl` [MA-D1]: the Kd in experiment [2] stood at 390 nM.
